Assay results reported in patent US12263248B2, “Compounds and compositions for intracellular delivery of therapeutic agents” (ModernaTX, Inc., priority 2018, dated 2025).

Test system: IL-6, MCP-1
Assay: Cytokine induction in non-human primates
Format: in vivo, Cynomolgus monkeys
Experimental: The tolerability and efficacy of nanoparticle compositions to non-human primates was also investigated using a sample formulation including Compound 18. The formulation was prepared according to the standard MC3 formulation described above and included an hEPO mRNA. Primates were administered a single dose of 0.05 (Group 1), 0.3 (Group 2), or 1.0 (Group 3) mpk via intravenous infusion for 60 minutes. Three primates were administered each dose. Expression of hEPO was measured prior to dosing and at 2, 6, 24, 48, and 96 hours post-treatment (Table 26). Table 28 includes levels of indicators of complement activation, while Table 29 includes cytokine induction data.
hEPO ELISA for NHP samples: Human Epo levels were measured using a human erythropoietin immunoassay. Cytokines levels were measured using a non-human primate cytokine kit.

**Q.** How did the IFNg (0.05 mpk, 2 h) turn out when `CCCCCCCCCOC(=O)CCCCCCCN(CCO)CCCCCCCC(=O)OC(CCCCCCCC)CCCCCCCC` [Compound 18, Heptadecan-9-yl 8-((2-hydroxyethyl)(8-(nonyloxy)-8-oxooctyl)amino)octanoate] was run?
**A.** The IFNg was 18.8 pg/mL.

**Q.** And the IFNα (0.05 mpk, 2 h)?
**A.** The IFNα was 18.8 pg/mL.

**Q.** What about the IL-1b (0.05 mpk, 2 h) of the same compound?
**A.** The IL-1b was 18.8 pg/mL.

**Q.** And the IL-6 (0.05 mpk, 2 h)?
**A.** The IL-6 was 18.8 pg/mL.

**Q.** And the MCP-1 (0.05 mpk, 2 h)?
**A.** The MCP-1 was 342 pg/mL.

**Q.** What about the TNF-α (0.05 mpk, 2 h) of the same compound?
**A.** The TNF-α was 18.8 pg/mL.

**Q.** What about the IFNg (0.05 mpk, 6 h) of the same compound?
**A.** The IFNg was 18.8 pg/mL.

**Q.** What about the IFNα (0.05 mpk, 6 h) of the same compound?
**A.** The IFNα was 18.8 pg/mL.

**Q.** What about the IL-1b (0.05 mpk, 6 h) of the same compound?
**A.** The IL-1b was 18.8 pg/mL.

**Q.** And the IL-6 (0.05 mpk, 6 h)?
**A.** Its IL-6 is 18.8 pg/mL.

**Q.** And the MCP-1 (0.05 mpk, 6 h)?
**A.** The MCP-1 was 543 pg/mL.

**Q.** And the TNF-α (0.05 mpk, 6 h)?
**A.** The TNF-α was 41.5 pg/mL.

**Q.** And the IFNg (0.05 mpk, 24 h)?
**A.** Its IFNg is 18.8 pg/mL.

**Q.** What about the IFNα (0.05 mpk, 24 h) of the same compound?
**A.** Its IFNα is 18.8 pg/mL.

**Q.** And the IL-1b (0.05 mpk, 24 h)?
**A.** The IL-1b was 18.8 pg/mL.

**Q.** And the IL-6 (0.05 mpk, 24 h)?
**A.** The IL-6 was 18.8 pg/mL.

**Q.** What about the MCP-1 (0.05 mpk, 24 h) of the same compound?
**A.** Its MCP-1 is 236 pg/mL.

**Q.** What about the TNF-α (0.05 mpk, 24 h) of the same compound?
**A.** Its TNF-α is 17.6 pg/mL.

**Q.** And the IFNg (0.05 mpk, Day 5)?
**A.** Its IFNg is 39.3 pg/mL.

**Q.** And the IFNα (0.05 mpk, Day 5)?
**A.** The IFNα was 18.8 pg/mL.

**Q.** What about the IL-1b (0.05 mpk, Day 5) of the same compound?
**A.** The IL-1b was 18.8 pg/mL.

**Q.** What about the IL-6 (0.05 mpk, Day 5) of the same compound?
**A.** Its IL-6 is 18.8 pg/mL.

**Q.** What about the MCP-1 (0.05 mpk, Day 5) of the same compound?
**A.** Its MCP-1 is 232 pg/mL.

**Q.** And the TNF-α (0.05 mpk, Day 5)?
**A.** The TNF-α was 63.5 pg/mL.

**Q.** What about the IFNg (0.05 mpk, Predose) of the same compound?
**A.** The IFNg was 18.8 pg/mL.

**Q.** And the IFNα (0.05 mpk, Predose)?
**A.** Its IFNα is 18.8 pg/mL.

**Q.** And the IL-1b (0.05 mpk, Predose)?
**A.** The IL-1b was 18.8 pg/mL.

**Q.** And the IL-6 (0.05 mpk, Predose)?
**A.** The IL-6 was 18.8 pg/mL.

**Q.** What about the MCP-1 (0.05 mpk, Predose) of the same compound?
**A.** Its MCP-1 is 192 pg/mL.

**Q.** What about the TNF-α (0.05 mpk, Predose) of the same compound?
**A.** Its TNF-α is 18.8 pg/mL.

**Q.** What about the IFNg (0.3 mpk, 2 h) of the same compound?
**A.** Its IFNg is 18.8 pg/mL.

**Q.** And the IFNα (0.3 mpk, 2 h)?
**A.** Its IFNα is 18.8 pg/mL.

**Q.** And the IL-1b (0.3 mpk, 2 h)?
**A.** The IL-1b was 18.8 pg/mL.

**Q.** And the IL-6 (0.3 mpk, 2 h)?
**A.** The IL-6 was 191 pg/mL.

**Q.** And the MCP-1 (0.3 mpk, 2 h)?
**A.** The MCP-1 was 3018 pg/mL.

**Q.** What about the TNF-α (0.3 mpk, 2 h) of the same compound?
**A.** The TNF-α was 38.2 pg/mL.

**Q.** And the IFNg (0.3 mpk, 6 h)?
**A.** The IFNg was 18.8 pg/mL.

**Q.** And the IFNα (0.3 mpk, 6 h)?
**A.** The IFNα was 18.8 pg/mL.

**Q.** And the IL-1b (0.3 mpk, 6 h)?
**A.** Its IL-1b is 18.8 pg/mL.

**Q.** What about the IL-6 (0.3 mpk, 6 h) of the same compound?
**A.** The IL-6 was 33.0 pg/mL.

**Q.** What about the MCP-1 (0.3 mpk, 6 h) of the same compound?
**A.** The MCP-1 was 2011 pg/mL.

**Q.** What about the TNF-α (0.3 mpk, 6 h) of the same compound?
**A.** The TNF-α was 32.5 pg/mL.

**Q.** What about the IFNg (0.3 mpk, 24 h) of the same compound?
**A.** Its IFNg is 18.8 pg/mL.

**Q.** And the IFNα (0.3 mpk, 24 h)?
**A.** Its IFNα is 18.8 pg/mL.

**Q.** And the IL-1b (0.3 mpk, 24 h)?
**A.** The IL-1b was 18.8 pg/mL.

**Q.** What about the IL-6 (0.3 mpk, 24 h) of the same compound?
**A.** The IL-6 was 18.8 pg/mL.

**Q.** And the MCP-1 (0.3 mpk, 24 h)?
**A.** The MCP-1 was 404 pg/mL.

**Q.** What about the TNF-α (0.3 mpk, 24 h) of the same compound?
**A.** Its TNF-α is 59.6 pg/mL.

**Q.** And the IFNg (0.3 mpk, Day 5)?
**A.** Its IFNg is 18.8 pg/mL.

**Q.** And the IFNα (0.3 mpk, Day 5)?
**A.** The IFNα was 18.8 pg/mL.

**Q.** And the IL-1b (0.3 mpk, Day 5)?
**A.** The IL-1b was 18.8 pg/mL.

**Q.** What about the IL-6 (0.3 mpk, Day 5) of the same compound?
**A.** The IL-6 was 18.8 pg/mL.

**Q.** And the MCP-1 (0.3 mpk, Day 5)?
**A.** The MCP-1 was 211 pg/mL.

**Q.** And the TNF-α (0.3 mpk, Day 5)?
**A.** The TNF-α was 18.8 pg/mL.

**Q.** And the IFNg (0.3 mpk, Predose)?
**A.** The IFNg was 18.8 pg/mL.

**Q.** And the IFNα (0.3 mpk, Predose)?
**A.** Its IFNα is 18.8 pg/mL.

**Q.** What about the IL-1b (0.3 mpk, Predose) of the same compound?
**A.** Its IL-1b is 18.8 pg/mL.

**Q.** And the IL-6 (0.3 mpk, Predose)?
**A.** Its IL-6 is 18.8 pg/mL.

**Q.** And the MCP-1 (0.3 mpk, Predose)?
**A.** Its MCP-1 is 168 pg/mL.

**Q.** And the TNF-α (0.3 mpk, Predose)?
**A.** The TNF-α was 18.8 pg/mL.

**Q.** And the IFNg (1.0 mpk, 2 h)?
**A.** The IFNg was 35.8 pg/mL.

**Q.** And the IFNα (1.0 mpk, 2 h)?
**A.** The IFNα was 18.8 pg/mL.

**Q.** What about the IL-1b (1.0 mpk, 2 h) of the same compound?
**A.** The IL-1b was 33.4 pg/mL.

**Q.** What about the IL-6 (1.0 mpk, 2 h) of the same compound?
**A.** The IL-6 was 834 pg/mL.

**Q.** What about the MCP-1 (1.0 mpk, 2 h) of the same compound?
**A.** Its MCP-1 is 4221 pg/mL.

**Q.** And the TNF-α (1.0 mpk, 2 h)?
**A.** The TNF-α was 18.8 pg/mL.

**Q.** What about the IFNg (1.0 mpk, 6 h) of the same compound?
**A.** Its IFNg is 38.9 pg/mL.

**Q.** And the IFNα (1.0 mpk, 6 h)?
**A.** The IFNα was 18.8 pg/mL.

**Q.** And the IL-1b (1.0 mpk, 6 h)?
**A.** The IL-1b was 18.8 pg/mL.

**Q.** And the IL-6 (1.0 mpk, 6 h)?
**A.** The IL-6 was 398 pg/mL.

**Q.** And the MCP-1 (1.0 mpk, 6 h)?
**A.** Its MCP-1 is 3945 pg/mL.

**Q.** What about the TNF-α (1.0 mpk, 6 h) of the same compound?
**A.** The TNF-α was 18.8 pg/mL.

**Q.** What about the IFNg (1.0 mpk, 24 h) of the same compound?
**A.** Its IFNg is 18.8 pg/mL.

**Q.** And the IFNα (1.0 mpk, 24 h)?
**A.** Its IFNα is 18.8 pg/mL.

**Q.** And the IL-1b (1.0 mpk, 24 h)?
**A.** Its IL-1b is 18.8 pg/mL.

**Q.** And the IL-6 (1.0 mpk, 24 h)?
**A.** Its IL-6 is 31.4 pg/mL.

**Q.** And the MCP-1 (1.0 mpk, 24 h)?
**A.** Its MCP-1 is 1444 pg/mL.

**Q.** And the TNF-α (1.0 mpk, 24 h)?
**A.** The TNF-α was 46.2 pg/mL.

**Q.** What about the IFNg (1.0 mpk, Day 5) of the same compound?
**A.** Its IFNg is 18.8 pg/mL.

**Q.** What about the IFNα (1.0 mpk, Day 5) of the same compound?
**A.** Its IFNα is 18.8 pg/mL.

**Q.** What about the IL-1b (1.0 mpk, Day 5) of the same compound?
**A.** Its IL-1b is 18.8 pg/mL.

**Q.** What about the IL-6 (1.0 mpk, Day 5) of the same compound?
**A.** The IL-6 was 18.8 pg/mL.

**Q.** What about the MCP-1 (1.0 mpk, Day 5) of the same compound?
**A.** The MCP-1 was 225 pg/mL.

**Q.** And the TNF-α (1.0 mpk, Day 5)?
**A.** Its TNF-α is 41.9 pg/mL.

**Q.** What about the IFNg (1.0 mpk, Predose) of the same compound?
**A.** The IFNg was 18.8 pg/mL.

**Q.** What about the IFNα (1.0 mpk, Predose) of the same compound?
**A.** Its IFNα is 18.8 pg/mL.

**Q.** And the IL-1b (1.0 mpk, Predose)?
**A.** Its IL-1b is 18.8 pg/mL.

**Q.** What about the IL-6 (1.0 mpk, Predose) of the same compound?
**A.** The IL-6 was 18.8 pg/mL.

**Q.** And the MCP-1 (1.0 mpk, Predose)?
**A.** Its MCP-1 is 235 pg/mL.

**Q.** And the TNF-α (1.0 mpk, Predose)?
**A.** The TNF-α was 18.8 pg/mL.
